The record followed here is US20230263822A1, “MODULATION OF FACTOR 11 EXPRESSION” (Ionis Pharmaceuticals, Inc., priority 2008, published 2023).

pIC50: −log10 of the molar value.

Broadly, the pIC50 is the IC50 on a negative log10 scale, so that one unit is a factor of ten.

Series [1] has as its system human Factor 11 mRNA. Kind of series: Dose-dependent inhibition of human Factor 11 in HepB3 cells, electroporation (Example 7). The class given is cell-based. Conditions: for percent inhibition of human Factor 11 mRNA relative to untreated control cells: ~16 hours. The method, then:
The gapmers were also transfected via electroporation and their dose dependent inhibition of human Factor 11 mRNA was measured. Cells were plated at a density of 20,000 cells per well and transfected via electroporation with 41.15 nM, 123.457 nM, 370.37 nM, 1111.11 nM, 3333.33 nM, and 10,000 nM concentrations of antisense oligonucleotide, as specified in Table 15. After a treatment period of approximately 16 hours, RNA was isolated from the cells and human Factor 11 mRNA levels were measured by quantitative real-time PCR. Human Factor 11 primer probe set RTS 2966 was used to measure mRNA levels. Factor 11 mRNA levels were adjusted according to total RNA content, as measured by RIBOGREEN. Results are presented as percent inhibition of human Factor 11, relative to untreated control cells.

On the set-up of series [2]: species or system CD1 mice. Conditions: mouse, in vivo. The method, then:
Five mice from each group were sacrificed 3 days, 28 days and 56 days following the final dose. Livers were harvested for analysis.
The concentration of the full-length oligonucleotide as well as the total oligonucleotide concentration (including the degraded form) was measured. The method used is a modification of previously published methods (Leeds et al., 1996; Geary et al., 1999) which consist of a phenol-chloroform (liquid-liquid) extraction followed by a solid phase extraction. An internal standard (ISIS 355868, a 27-mer 2′-O-methoxyethyl modified phosphorothioate oligonucleotide, […], designated herein as SEQ ID NO: 270) was added prior to extraction. […] Half-lives were then calculated using WinNonlin software ([…]).
The results are presented in Tables 68 and 69, expressed as μg/g liver tissue.

Details of series [3]: species or system Sprague-Dawley rats. Conditions: rat, in vivo. The method, then: Three days after the last dose, the rats were sacrificed and livers and kidneys were collected for analysis.
The concentration of the full-length oligonucleotide as well as the total oligonucleotide concentration (including the degraded form) was measured. The method used is a modification of previously published methods (Leeds et al., 1996; Geary et al., 1999) which consist of a phenol-chloroform (liquid-liquid) extraction followed by a solid phase extraction. An internal standard (ISIS 355868, a 27-mer 2′-O-methoxyethyl modified phosphorothioate oligonucleotide, […], designated herein as SEQ ID NO: 270) was added prior to extraction. […] The results are presented in Tables 77 and 78, expressed as μg/g liver or kidney tissue. Half-lives were then calculated using WinNonlin software ([…]).

The test system of series [4] is human Factor 11 mRNA. Briefly: Dose-dependent inhibition of human Factor 11 in cyano primary hepatocytes, electroporation (Example 6). Conditions: ~16 hours. It is filed as cell-based. The method, then:
Cells were plated at a density of 35,000 cells per well and transfected via electroporation with 0.74 nM, 2.2 nM, 6.7 nM, 20 nM, 60 nM, and 180 nM concentrations of antisense oligonucleotide, as specified in Table 13. After a treatment period of approximately 16 hours, RNA was isolated from the cells and human Factor 11 mRNA levels were measured by quantitative real-time PCR. Human Factor 11 primer probe set RTS 2966 was used to measure mRNA levels. Factor 11 mRNA levels were adjusted according to total RNA content, as measured by RIBOGREEN. Results are presented as percent inhibition of human Factor 11, relative to untreated control cells.

In series [1], “416825 (antisense GCCCTTCATGTCTAGGTCCA; 5-10-5 gapmer, further chemistry not given here) [compound 416825]” gave a pIC50 of 6.80. The “percent inhibition of human Factor 11 mRNA relative to untreated control cells” value turned out to be 32% in series [1] (41.15 nM); 40% in series [1] (123.457 nM); 48% in series [1] (370.37 nM); 75% in series [1] (1111.11 nM); 90% in series [1] (3333.33 nM); 92% in series [1] (10000 nM). Moreover, the “percent inhibition of human Factor 11 mRNA relative to untreated control cells” value came out at 5% in series [4] (0.74 nM); 22% in series [4] (2.2 nM); 51% in series [4] (6.7 nM); 61% in series [4] (20 nM); 77% in series [4] (60 nM); 84% in series [4] (180 nM). The “Half-Life in the liver” value in series [2] came out at 16 days. Besides, the “Half-life in the liver and kidney” value in series [3] was determined as 16 days.

“417003 (antisense TGGTGCACAGTTTCTGGCAG; 2-13-5 gapmer chemistry, further chemistry not given here) [compound 417003]” had a negative logarithm of the IC50 (pIC50) in series [1] of 5.82. Further, the “percent inhibition of human Factor 11 mRNA relative to untreated control cells” value in series [1] (41.15 nM) is reported as 31%; in series [1] (123.457 nM), 0%; in series [1] (370.37 nM), 15%; in series [1] (1111.11 nM), 43%; in series [1] (3333.33 nM), 84%; in series [1] (10000 nM), 92%. In addition, the “percent inhibition of human Factor 11 mRNA relative to untreated control cells” value in series [4] (0.74 nM) is on record as 12%; in series [4] (2.2 nM), 18%; in series [4] (6.7 nM), 19%; in series [4] (20 nM) it was 39%; in series [4] (60 nM), 58%; in series [4] (180 nM), 74%. Also, in series [2], the “Half-Life in the liver” value is listed as 10 days. Moreover, the “Half-life in the liver and kidney” value in series [3] was determined as 10 days.

As to “416864 (antisense GGCAGCGGACGGCATTGGTG; 5-10-5 gapmer, further chemistry not given here) [compound 416864]”, the pIC50 in series [1] is 5.66. Also, the “percent inhibition of human Factor 11 mRNA relative to untreated control cells” value in series [1] (41.15 nM) was 4%; in series [1] (123.457 nM), 3%; in series [1] (370.37 nM) it was 6%; in series [1] (1111.11 nM), 35%; in series [1] (3333.33 nM) it was 75%; in series [1] (10000 nM) it was 87%. Besides, the “percent inhibition of human Factor 11 mRNA relative to untreated control cells” value in series [4] (0.74 nM) stood at 0%; in series [4] (2.2 nM) it was 1%; in series [4] (6.7 nM), 15%; in series [4] (20 nM), 23%; in series [4] (60 nM) it was 47%; in series [4] (180 nM) it was 64%. Moreover, the “Half-Life in the liver” value in series [2] stood at 13 days. The “Half-life in the liver and kidney” value in series [3] is listed as 13 days.

Regarding “416838 (antisense GCAACCGGGATGATGAGTGC; 5-10-5 gapmer, further chemistry not given here) [compound 416838]”, the negative-log IC50 (pIC50) in series [1] is 5.92. Besides, the “percent inhibition of human Factor 11 mRNA relative to untreated control cells” value in series [1] (41.15 nM) turned out to be 12%; in series [1] (123.457 nM), 9%; in series [1] (370.37 nM), 28%; in series [1] (1111.11 nM) it was 40%; in series [1] (3333.33 nM) it was 77%; in series [1] (10000 nM), 88%. For the same substance, the “percent inhibition of human Factor 11 mRNA relative to untreated control cells” value in series [4] (0.74 nM) came out at 0%; in series [4] (2.2 nM) it was 0%; in series [4] (6.7 nM), 21%; in series [4] (20 nM), 34%; in series [4] (60 nM), 48%; in series [4] (180 nM) it was 62%. The “Half-Life in the liver” value in series [2] was determined as 13 days. The “Half-life in the liver and kidney” value in series [3] is 13 days.

“416892 (antisense GCCCTTCATGTCTAGGTCCA; 3-14-3 chimeric gapmer, further chemistry not given here) [compound 416892]” gave a pIC50 in series [1] of 6.21. Also, the “percent inhibition of human Factor 11 mRNA relative to untreated control cells” value in series [1] (41.15 nM) was determined as 9%; in series [1] (123.457 nM), 12%; in series [1] (370.37 nM), 28%; in series [1] (1111.11 nM) it was 65%; in series [1] (3333.33 nM), 89%; in series [1] (10000 nM) it was 98%. The “percent inhibition of human Factor 11 mRNA relative to untreated control cells” value in series [4] (0.74 nM) is 20%; in series [4] (2.2 nM), 20%; in series [4] (6.7 nM) it was 43%; in series [4] (20 nM), 62%; in series [4] (60 nM), 88%; in series [4] (180 nM), 92%. For the same substance, the “Half-Life in the liver” value in series [2] was determined as 12 days. The “Half-life in the liver and kidney” value in series [3] turned out to be 12 days.
